The target in assay [1] is GPIIb/IIIa (Homo sapiens, UniProt P05106+P08514). Put plainly: In vitro solid phase purified glycoprotein IIb/IIIa binding assay (biotinylated fibrinogen binding). The following applies: for inhibition at 50 µM: read-out: Fibrinogen Binding % Inh. (50 µM). As to the method:
IN VITRO SOLID PHASE PURIFIED GLYCOPROTEIN IIB/IIIA BINDING ASSAY.
The plate is covered and incubated overnight at 4°C. The GPIIb/IIa solution is discarded and 150 µl of 5% BSA is added and incubated at RT for 1-3 h. The plate is washed extensively with modified Tyrodes buffer. Biotinylated fibrinogen (25 µl/well) at 2 x final concentration is added to the wells that contain the test compounds (25 µl/well). The plate is covered and incubated at RT for 2-4 h. Twenty minutes prior to incubation completion, one drop of Reagent A (Vecta Stain ABC Horse Radish Peroxidase kit, Vector Laboratories, Inc.) and one drop Reagent B are added with mixing to 5 mL modified Tyrodes buffer mix and let stand. The ligand solution is discarded and the plate washed (5 x 200 µl/well) with modified Tyrodes buffer. Vecta Stain HRP-Biotin-Avidin reagent (50 µl/well, as prepared above) is added and incubated at RT for 15 min. The Vecta Stain solution is discarded and the wells washed (5 x 200 µl/well) with modified Tyrodes buffer. Developing buffer (10 mL of 50 mM citrate/phosphate buffer @ pH 5.3, 6 mg o-phenylenediamine, 6 µl 30% H2O2; 50 µl/well) is added and incubated at RT for 3-5 min, and then 2N H2SO4 (50 µl/well) is added. The absorbance is read at 490 nm.

Assay [2] relates to gel-filtered platelets. Put plainly: In vitro inhibition of thrombin-induced gel-filtered platelet aggregation. The following applies: Homo sapiens; for inhibition at 50 µM: read-out: Platelet Aggregation % Inh. (50µM). In kind it is cell-based. As to the method:
IN VITRO INHIBITION OF THROMBIN-INDUCED GEL-FILTERED PLATELET AGGREGATION ASSAY.
The percentage of platelet aggregation is calculated as an increase in light transmission of compound-treated platelet concentrate vs. control-treated platelet concentrate. Human blood is obtained from drug free, normal donors into tubes containing 0.13M sodium citrate. Platelet rich plasma (PRP) is collected by centrifugation of whole blood at 200 x g for 10 min at 25°C. The PRP (5 mL) is gel filtered through Sepharose 2B (bed volume 50 mL), and the platelet count is adjusted to 2x10^7 platelets per sample. The following constituents are added to a siliconized cuvette: concentrated platelet filtrate and Tyrode's buffer (0.14M NaCl, 0.0027MKCl, 0.012M NaHCO3, 0.76 mM Na2HPO4, 0.0055M glucose, 2 mg/mL BSA and 5.0mM HEPES @ pH 7.4) in an amount equal to 350 µl, 50 µl of 20 mM calcium and 50 µl of the test compound. Aggregation is monitored in a BIODATA aggregometer for the 3 min following the addition of agonist (thrombin 50 µl of 1 unit/mL).

For assay [3], the system named is collagen- or ADP-induced ex vivo platelet aggregation. Description: Ex vivo dog study (platelet aggregation, hemodynamics, bleeding time, coagulation, cell counts). In kind it is in vivo, dogs. The procedure: Adult mongrel dogs (8-13 kg) were anesthetized with sodium pentobarbital (35 mg/kg, i.v.) and artificially respired. Arterial blood pressure and heart rate were measured using a Millar catheter-tip pressure transducer inserted in a femoral artery. Another Millar transducer was placed in the left ventricle (LV) via a carotid artery to measure LV end diastolic pressure and indices of myocardial contractility. A lead II electrocardiogram was recorded from limb electrodes. Catheters were placed in a femoral artery and vein to sample blood and infuse drugs, respectively. Responses were continuously monitored using a Modular Instruments data aquisition system.
Arterial blood samples (5-9 ml) were withdrawn into tubes containing 3.8% sodium citrate to prepare platelet rich plasma (PRP) and to determine effects on coagulation parameters: prothrombin time (PT) and activated partial thromboplastin time (APTT). Separate blood samples (1.5 ml) were withdrawn in EDTA to determine hematocrit and cell counts (platelets, RBC's and white cells). Template bleeding times were obtained from the buccal surface using a symplate incision devise and Whatman filter paper.
Aggregation of PRP was performed using a BioData aggregometer. Aggregation of whole blood used a Chronolog impedance aggregometer. PT and APTT were determined on either a BioData or ACL 3000+ coagulation analyser. Cells were counted with a Sysmex K-1000.
Compounds were solubilized in a small volume of dimethylformamide (DMF) and diluted with saline to a final concentration of 10% DMF. Compounds were administered by the intravenous route with a Harvard infusion pump. Doses was administered over a 15 min interval at a constant rate of 0.33 ml/min. Data were obtained after each dose and in 30 min intervals following the end of drug administration. Oral doses were administered as aqueous solutions via syringe.

Sequence of GPIIb/IIIa (P08514 32-887 limits assumed): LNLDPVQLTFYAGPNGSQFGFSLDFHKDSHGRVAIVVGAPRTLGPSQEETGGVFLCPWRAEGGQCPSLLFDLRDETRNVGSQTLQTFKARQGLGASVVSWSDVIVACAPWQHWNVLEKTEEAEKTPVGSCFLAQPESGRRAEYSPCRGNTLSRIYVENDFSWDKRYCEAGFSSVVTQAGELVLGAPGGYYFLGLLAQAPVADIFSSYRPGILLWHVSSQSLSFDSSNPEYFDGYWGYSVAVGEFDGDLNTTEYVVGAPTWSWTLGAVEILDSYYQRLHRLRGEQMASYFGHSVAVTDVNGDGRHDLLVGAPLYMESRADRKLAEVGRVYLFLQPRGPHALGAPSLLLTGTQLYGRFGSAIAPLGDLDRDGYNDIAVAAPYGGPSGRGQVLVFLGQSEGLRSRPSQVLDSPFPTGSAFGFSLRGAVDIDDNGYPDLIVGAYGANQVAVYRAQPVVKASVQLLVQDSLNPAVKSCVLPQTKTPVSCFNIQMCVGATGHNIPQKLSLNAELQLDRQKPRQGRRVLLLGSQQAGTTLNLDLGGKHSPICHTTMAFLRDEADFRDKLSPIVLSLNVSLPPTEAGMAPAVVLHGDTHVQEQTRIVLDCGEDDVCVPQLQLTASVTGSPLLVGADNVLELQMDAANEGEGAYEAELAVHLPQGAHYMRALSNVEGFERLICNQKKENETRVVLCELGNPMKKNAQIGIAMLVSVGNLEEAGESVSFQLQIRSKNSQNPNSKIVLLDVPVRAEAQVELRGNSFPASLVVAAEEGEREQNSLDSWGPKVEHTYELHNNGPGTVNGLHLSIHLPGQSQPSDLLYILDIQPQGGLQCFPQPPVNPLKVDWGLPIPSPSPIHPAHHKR
Sequence of GPIIb/IIIa (P08514 891-1039 partner limits assumed): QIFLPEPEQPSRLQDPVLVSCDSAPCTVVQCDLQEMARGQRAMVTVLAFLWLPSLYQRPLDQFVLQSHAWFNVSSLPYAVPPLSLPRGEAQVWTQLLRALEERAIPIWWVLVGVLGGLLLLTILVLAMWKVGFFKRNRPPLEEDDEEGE
Sequence of GPIIb/IIIa (P05106 27-788): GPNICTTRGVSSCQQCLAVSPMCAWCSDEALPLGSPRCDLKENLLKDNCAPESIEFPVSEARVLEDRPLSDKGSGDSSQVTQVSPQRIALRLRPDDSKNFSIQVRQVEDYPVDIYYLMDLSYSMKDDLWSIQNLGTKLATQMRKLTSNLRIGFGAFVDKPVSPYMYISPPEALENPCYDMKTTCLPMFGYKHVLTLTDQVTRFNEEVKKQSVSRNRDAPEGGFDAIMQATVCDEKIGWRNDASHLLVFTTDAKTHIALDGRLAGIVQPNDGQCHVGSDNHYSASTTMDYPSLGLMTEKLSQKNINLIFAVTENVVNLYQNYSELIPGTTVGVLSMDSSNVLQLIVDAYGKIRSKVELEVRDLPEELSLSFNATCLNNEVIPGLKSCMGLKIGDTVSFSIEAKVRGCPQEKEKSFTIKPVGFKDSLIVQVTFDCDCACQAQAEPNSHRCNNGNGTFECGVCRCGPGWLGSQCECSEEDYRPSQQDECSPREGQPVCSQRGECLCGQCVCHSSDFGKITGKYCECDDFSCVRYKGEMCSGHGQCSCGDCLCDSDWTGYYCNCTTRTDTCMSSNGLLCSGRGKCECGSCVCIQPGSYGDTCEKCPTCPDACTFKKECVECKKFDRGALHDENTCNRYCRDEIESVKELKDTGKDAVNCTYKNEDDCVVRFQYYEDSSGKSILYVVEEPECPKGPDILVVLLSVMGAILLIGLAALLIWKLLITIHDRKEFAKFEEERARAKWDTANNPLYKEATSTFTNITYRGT

For `CC(C)(C)C#CC(CC(=O)O)NC(=O)C1CCCN(C(=O)CCC2CCNCC2)C1` (single isomer, unassigned) [Compound 19], the results for the IC50 in assay [1] and in assay [2] were 21 nM and 79 nM, respectively. Further, the figures for the inhibition at 50 µM in assay [1] and in assay [2] were 99% and 92.1%, respectively. Also, the “Duration of >50% inhibition of collagen- or ADP-induced ex vivo platelet aggregation” value is listed as 30 min in assay [3] (intravenous dosing 1 mpk) and 90 min in assay [3] (oral dosing 10 mpk).
For `CN1CCN(CCC(=O)N2CCCC(C(=O)NC(CC(=O)O)c3cnc4ccccc4c3)C2)CC1` (stereo not drawn) [Compound 15, N-3-(4-N-Methyl-piperazinepropionyl)-nipecotyl-[3-amino-3-(3-quinolinyl)]propionic acid], the IC50 in assay [1] was found to be 9.1 nM; in assay [2], 1900 nM. The values for the inhibition at 50 µM in assay [1] and in assay [2] were 100% and 92.2%, respectively. Also, the “Duration of >50% inhibition of collagen- or ADP-induced ex vivo platelet aggregation” value in assay [3] (intravenous dosing 1 mpk) is 30 min; in assay [3] (oral dosing 10 mpk) it was 120 min.
Consider `O=C(O)C[C@H](NC(=O)[C@@H]1CCCN(C(=O)CCC2CCNCC2)C1)c1cccnc1` [Compound 21, N-3-(4-Piperidinepropionyl)-R-(-)-nipecotyl-[(S)-3-amino-3-(3-pyridyl)] propionic acid], for which the inhibition at 50 µM in assay [1] and in assay [2] was 100% throughout. In assay [2], this compound came in with an IC50 of 60 nM. The “Duration of >50% inhibition of collagen- or ADP-induced ex vivo platelet aggregation” value in assay [3] (intravenous dosing 0.3 mpk) is given as 150 min; in assay [3] (oral dosing 1 mpk), 180 min.
Take `COc1cccc(NC(=O)N[C@@H](CNC(=O)[C@@H]2CCCN(C(=O)CCC3CCNCC3)C2)C(=O)O)c1` [Compound 22, N-3-(4-Piperidinepropionyl)-R-(-)nipecotyl-[(S)-2-(3-methoxyanilino)carbonylamino-3-amino]propionic acid]: the inhibition at 50 µM in assay [1] worked out at 100%; in assay [2], 94%. For the same compound, half-maximal inhibition in assay [2] (IC50) was put at 46 nM. In addition, the “Duration of >50% inhibition of collagen-induced ex vivo platelet aggregation” value in assay [3] (intravenous dosing 0.3 mpk) is recorded as 180 min; in assay [3] (oral dosing 3 mpk), 60 min.
For `O=C(N[C@@H](CNC(=O)[C@@H]1CCCN(C(=O)CCC2CCNCC2)C1)C(=O)O)OCc1ccccc1` [Compound 23, N-3-(4-Piperidinepropionyl)-R-(-)nipecotyl-[(S)-2-benzyloxycarbonylamino-3-amino]propionic acid], the inhibition at 50 µM in assay [1] came to 100%; in assay [2], 97%. The compound also showed a half-maximal inhibitory concentration (IC50) in assay [2] of 27 nM. For the same compound, the “Duration of >50% inhibition of collagen-induced ex vivo platelet aggregation” value came to 60 min in assay [3] (intravenous dosing 0.1 mpk), 180 min in assay [3] (oral dosing 1 mpk) and 150 min in assay [3] (oral dosing 3 mpk).
For the compound `O=C(N[C@@H](CNC(=O)[C@@H]1CCCN(C(=O)CCC2CCNCC2)C1)C(=O)O)OCc1cccc(Cl)c1` [Compound 24, N-3-(4-Piperidinepropionyl)-R-(-)nipecotyl-[(S)-2-(3-chlorobenzyloxy)carbonylamino-3-amino]propionic acid], the IC50 in assay [1] was 0.4 nM; in assay [2], 18 nM. For the same compound, the inhibition at 50 µM in assay [1] and in assay [2] was 100% throughout. For the same compound, the “Duration of >50% inhibition of collagen-induced ex vivo platelet aggregation” value in assay [3] (intravenous dosing 0.3 mpk) turned out to be 90 min; in assay [3] (oral dosing 3 mpk), 120 min.
With `O=C(NC[C@H](NS(=O)(=O)Cc1ccccc1)C(=O)O)[C@@H]1CCCN(C(=O)CCC2CCNCC2)C1` [Compound 25, N-3-(4-Piperidinepropionyl)-R-(-)nipecotyl-[(S)-2-benzylsulfonylamino-3-amino]propionic acid], the inhibition at 50 µM amounted to 100% in assay [1] and 97% in assay [2]. For the same compound, in assay [2], the midpoint of inhibition, the IC50, lay at 7 nM. Besides, the entries for the “Duration of >50% inhibition of collagen-induced ex vivo platelet aggregation” value in assay [3] (intravenous dosing 0.3 mpk) and in assay [3] (oral dosing 3 mpk) were 30 min and 60 min, respectively.

The term IC50 denotes the point on the concentration scale where inhibition reaches its midpoint. Lower therefore signals greater potency in that assay.

For the origin of these results see patent EP1184374A1, “Carboxamide derivatives of pyrrolidine, piperidine and hexahydroazepine for the treatment of thrombosis disorders” (ORTHO PHARMACEUTICAL CORPORATION, priority 1996, dated 1997).
